Experimental data: patent US7205298B2, “Substituted triazine kinase inhibitors” (Janssen Pharmaceutica N.V., priority 2002, dated 2007)
Values joined by “and” are separate entries in the source; they are usually repeats but may differ in a detail not shown here. Equal entries are not always repeated.

Columns and labels:
[1] = target: T1, VEGF-R (rat VEGF-R2 kinase domain) (Rattus norvegicus, UniProt O08775); assay: VEGF-R Screening Assay; assay type: biochemical
T1 construct: 6xHis (polyhistidine) (N)
T1 sequence (O08775 786-1343): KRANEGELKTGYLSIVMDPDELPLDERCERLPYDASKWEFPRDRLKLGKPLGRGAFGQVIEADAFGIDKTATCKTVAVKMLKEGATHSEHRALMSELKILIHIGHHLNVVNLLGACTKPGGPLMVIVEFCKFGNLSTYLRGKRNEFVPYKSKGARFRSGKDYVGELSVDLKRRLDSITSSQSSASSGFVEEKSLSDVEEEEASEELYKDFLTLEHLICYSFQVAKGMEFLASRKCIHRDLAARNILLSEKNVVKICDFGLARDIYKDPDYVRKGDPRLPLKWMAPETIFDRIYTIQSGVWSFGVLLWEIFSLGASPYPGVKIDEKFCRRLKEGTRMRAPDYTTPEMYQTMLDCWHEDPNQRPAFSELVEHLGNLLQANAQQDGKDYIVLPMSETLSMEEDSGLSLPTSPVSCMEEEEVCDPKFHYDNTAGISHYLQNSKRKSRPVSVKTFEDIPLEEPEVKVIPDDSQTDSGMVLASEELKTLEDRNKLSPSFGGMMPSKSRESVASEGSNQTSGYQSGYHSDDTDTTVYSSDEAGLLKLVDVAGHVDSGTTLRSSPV
Procedure: A kinase reaction mixture was prepared containing 50 mM Tris-HCl pH=8, 10 mM MgCl2, 0.1 mM Na3PO4, 1 mM DTT, 10 μM ATP, 0.025 μM biotinylated peptide substrate (also referred to herein as PLC-1 biotinylated peptide substrate and PDGF receptor substrate, sequence provided in the peptide substrate table) and 0.8 μCuries per well ^33P-γ-ATP (2000–3000 Ci/mmol). 70 μL of the kinase reaction mixture was dispensed into the well of a streptavidin coated FlashPlate™ (Cat. # SMP103, NEN, Boston, Mass.). Then 1 μL of test compound stock in 100% DMSO was added to the wells resulting in a final concentration of 1% DMSO in the reaction with a 100 μL final reaction volume. Next, soluble rat VEGF tyrosine kinase containing an N-terminal 6XHIS tag was diluted in 50 mM Tris-HCl pH=8.0, 0.1% BSA at a concentration of 5 ng per μL and 30 μL (150 ng enzyme per test well) was added to each well to initiate the reaction. The reaction was incubated for one hour at 30° C. At the end of the 1-hour incubation, the reaction was terminated by aspirating the reaction mixture from the plate and washing the wells twice with PBS containing 100 mM EDTA. The PLC1 biotinylated peptide substrate became immobilized on the Flashplate™ and the incorporation of ^33P-γ-ATP was measured by reading the plate on a scintillation counter. Inhibition of the enzymatic activity of the VEGF-R was measured by observing a reduced amount of ^33P-γ-ATP incorporated into the immobilized peptide.
Assays to test compound inhibition of other kinases were preformed using methods that measure the amount of phosphorylation of a biotinylated peptide substrate. Biotinylated peptide substrates were selected from the literature as appropriate for the enzyme being evaluated. The general procedure used to assay for kinase activity is as follows: a kinase reaction mix was prepared in 50 mM Tris-HCl pH=8, 10 mM MgCl2, 0.1 mM Na3VO4, 1 mM DTT, 10 μM ATP, 0.25–1 μM biotinylated peptide substrate, 0.2–0.8 μCuries per well ^33P-γ-ATP (2000–3000 Ci/mmol). Assay conditions vary slightly for each protein kinase, for example, insulin receptor kinase requires 10 mM MnCl2 for activity and Calmodulin-dependent protein kinase requires calmodulin and 2 mM CaCl2. The reaction mixture was dispensed into the wells of a streptavidin coated Flashplate and 1 μL test compound in 100% DMSO was added to a 100 μL reaction volume resulting in a final concentration of 1% DMSO in the reaction. Enzyme was diluted in 50 mM Tris-HCl pH=8.0, 0.1% BSA and added to each well. The reaction was incubated for one hour at 30° C. in the presence of a test compound. After one hour the reaction mix was aspirated from the plate and the plate was washed with PBS containing 100 mM EDTA. The plate was read on a scintillation counter to determine ^33P-γ-ATP incorporated into the immobilized peptide substrate. Test compounds were assayed in duplicate at 8 concentrations (100 μM, 10 μM, 1 μM, 100 nM, 10 nM, 1 nM, 100 pM, 10 pM). A maximum and minimum signal for the assay was determined on each plate. […] Known inhibitor compounds appropriate for the kinase being assayed were also included on each plate.
The form of VEGF-R (vascular endothelial growth factor receptor-2) used was a fusion protein containing a polyhistidine tag at the N-terminus followed by amino acids 786–1343 of the rat VEGF-R2 kinase domain (GenBank Accession #U93306). The form of CDK1 (cyclin dependent kinase 1) used was isolated from insect cells expressing both the human CDK1 catalytic subunit and its positive regulatory subunit cyclin B (CDK1:cyclin B protein, New England Biolabs, Beverly, Mass., Cat. #6020). The form of CDK4 (cyclin dependent kinase 4) used contains amino acids 769 to 921 of the mouse […] protein found in the GST-retinoblastoma protein construct (Santa Cruz Biotechnology, Santa Cruz, Calif.; Cat. #SC-4112). The form of EGF-R1 (epidermal growth factor receptor 1) used was purified from human A431 cell membranes (Sigma, St. Louis, Mo., Cat.# E3641). […]

Casein Kinase 2 = target: T2, Casein Kinase 2 (Homo sapiens, UniProt P68400); assay: Kinase selectivity assay Casein Kinase 2; assay type: biochemical
T2 construct: purchased New England Biolabs 6010; host or cells: E. coli
T2 sequence (P68400 whole entry): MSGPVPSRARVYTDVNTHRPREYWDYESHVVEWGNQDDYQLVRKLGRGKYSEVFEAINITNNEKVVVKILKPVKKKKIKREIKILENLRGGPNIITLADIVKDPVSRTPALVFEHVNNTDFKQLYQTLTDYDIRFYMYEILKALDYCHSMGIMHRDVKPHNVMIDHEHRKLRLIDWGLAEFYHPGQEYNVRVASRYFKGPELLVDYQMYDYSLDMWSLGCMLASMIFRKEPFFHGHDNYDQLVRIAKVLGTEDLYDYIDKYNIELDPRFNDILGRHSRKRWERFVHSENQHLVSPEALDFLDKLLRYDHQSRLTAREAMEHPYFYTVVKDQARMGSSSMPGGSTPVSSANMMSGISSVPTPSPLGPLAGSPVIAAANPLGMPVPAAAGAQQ
T2 sequence (P67870 whole entry partner): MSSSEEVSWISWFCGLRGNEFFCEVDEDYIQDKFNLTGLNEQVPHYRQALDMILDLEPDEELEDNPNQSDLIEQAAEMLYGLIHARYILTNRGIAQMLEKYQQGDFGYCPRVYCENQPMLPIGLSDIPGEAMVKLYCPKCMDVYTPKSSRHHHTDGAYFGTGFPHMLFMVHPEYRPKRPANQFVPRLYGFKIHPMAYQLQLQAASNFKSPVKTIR
Procedure: (§1) Assays to test compound inhibition of other kinases were preformed using methods that measure the amount of phosphorylation of a biotinylated peptide substrate. Biotinylated peptide substrates were selected from the literature as appropriate for the enzyme being evaluated. The general procedure used to assay for kinase activity is as follows: a kinase reaction mix was prepared in 50 mM Tris-HCl pH=8, 10 mM MgCl2, 0.1 mM Na3VO4, 1 mM DTT, 10 μM ATP, 0.25–1 μM biotinylated peptide substrate, 0.2–0.8 μCuries per well ^33P-γ-ATP (2000–3000 Ci/mmol). Assay conditions vary slightly for each protein kinase, for example, insulin receptor kinase requires 10 mM MnCl2 for activity and Calmodulin-dependent protein kinase requires calmodulin and 2 mM CaCl2. The reaction mixture was dispensed into the wells of a streptavidin coated Flashplate and 1 μL test compound in 100% DMSO was added to a 100 μL reaction volume resulting in a final concentration of 1% DMSO in the reaction. Enzyme was diluted in 50 mM Tris-HCl pH=8.0, 0.1% BSA and added to each well. The reaction was incubated for one hour at 30° C. in the presence of a test compound. […] The plate was read on a scintillation counter to determine ^33P-γ-ATP incorporated into the immobilized peptide substrate. […] A maximum and minimum signal for the assay was determined on each plate. […]

GSK-3 (beta isoform) = GSK-3 (beta isoform) (Oryctolagus cuniculus, UniProt G1T8E2); assay: Kinase selectivity assay GSK-3; assay type: biochemical, rabbit
Chain of GSK-3 (beta isoform) (G1T8E2 1-432): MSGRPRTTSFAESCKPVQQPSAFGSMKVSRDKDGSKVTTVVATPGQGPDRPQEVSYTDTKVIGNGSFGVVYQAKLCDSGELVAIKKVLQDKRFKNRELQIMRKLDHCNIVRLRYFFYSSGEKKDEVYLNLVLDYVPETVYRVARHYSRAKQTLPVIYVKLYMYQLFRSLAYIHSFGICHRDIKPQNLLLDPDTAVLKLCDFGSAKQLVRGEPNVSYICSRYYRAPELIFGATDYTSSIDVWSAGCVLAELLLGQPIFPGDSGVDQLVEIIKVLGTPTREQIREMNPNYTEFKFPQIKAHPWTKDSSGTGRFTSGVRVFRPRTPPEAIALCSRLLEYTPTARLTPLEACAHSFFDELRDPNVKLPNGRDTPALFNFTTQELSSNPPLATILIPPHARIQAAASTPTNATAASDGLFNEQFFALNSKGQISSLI
Procedure: as §1

MAP Kinase ERK-2 = target: T3, MAP Kinase ERK-2 (Rattus norvegicus, UniProt P63086); assay: Kinase selectivity assay MAP Kinase ERK-2; assay type: biochemical
T3 construct: polyhistidine (N); purchased BIOMOL SE-137; host or cells: E. coli
T3 sequence (P63086 whole entry): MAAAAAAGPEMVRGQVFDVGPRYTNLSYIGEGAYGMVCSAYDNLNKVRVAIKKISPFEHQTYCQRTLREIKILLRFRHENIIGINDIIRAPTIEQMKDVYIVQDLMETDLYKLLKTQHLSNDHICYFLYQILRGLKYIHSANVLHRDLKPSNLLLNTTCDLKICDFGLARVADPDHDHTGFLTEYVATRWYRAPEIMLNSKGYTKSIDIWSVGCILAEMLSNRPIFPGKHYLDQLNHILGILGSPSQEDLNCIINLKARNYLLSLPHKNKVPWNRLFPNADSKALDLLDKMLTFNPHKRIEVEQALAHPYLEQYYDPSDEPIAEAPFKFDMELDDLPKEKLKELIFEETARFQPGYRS
Procedure: as §1

| SMILES | IC50 [1] | IC50 (Casein Kinase 2) [µM] | IC50 (GSK-3 (beta isoform)) [µM] | IC50 (MAP Kinase ERK-2) [µM] |
| --- | --- | --- | --- | --- |
| OCCCNc1cncc(-c2ncnc(Nc3cccc(Cl)c3)n2)c1 [Compound 1, 3-((5-(4-((3-chlorophenyl)amino)-1,3,5-triazin-2-yl)-3-pyridinyl)amino)-1-propanol] | 2.56 µM | 0.926 | 0.005 | > 100 |
| OCCCNc1cc(-c2ncnc(Nc3cccc(Cl)c3)n2)ccn1 [Compound 2, 3-((4-(4-((3-chlorophenyl)amino)-1,3,5-triazin-2-yl)-2-pyridinyl)amino)-1-propanol] | 2.56 µM and 2.57 µM | > 100 | 0.017 | > 10 |
